Data published in US20190307754A1, “PDE9 INHIBITORS FOR TREATMENT OF PERIPHERAL DISEASES” (IMARA, INC., priority 2016, published 2019).

How the values were obtained:
[1] = test system: PDE1; assay: PDE1 inhibition assay; assay type: biochemical
Method: Reactions were initiated by addition of the cyclic nucleotide substrate, and reactions were allowed to proceed for 1 h at room temperature before being terminated through mixing with 20 μL (0.2 mg) yttrium silicate SPA beads (PerkinElmer).

[2] = test system: C57Bl/6J mice; assay: Locomotor activity and contextual fear conditioning in C57Bl/6J mice; assay type: in vivo; conditions: gavage, 5 days
Method: The exposure of both compounds was also evaluated in the plasma, brain, and eye. […] During the treatment period all animals were assessed for contextual fear conditioning and a subset of 7 animals per group was evaluated for locomotor activity. On Day 5, plasma, brain, and eye tissue were collected 30 minutes after dosing from 3 animals per treated group to measure concentrations of test item.

[3] = test system: CD34+ derived red blood cells from SCD subjects; conditions: 5 days
[4] = test system: Berkeley sickle cell transgenic mice; assay: HbF positive and sickled red blood cells in Berkeley sickle cell transgenic mice; assay type: in vivo; conditions: 30 mg/kg/day Compound P3.1 or 100 mg/kg/day HU, gavage, 30 days
Method: This study assessed the effects of chronic dosing (30 day) of Compound P3.1 and HU on HbF and cell sickling in a mouse model of sickle cell disease. Berkeley sickle cell transgenic mice (Hbatm1PazHbbtm1Tow Tg(HBA-HBBs)41Paz/J) were divided into groups of 7 to 8 animals and were dosed once daily, by gavage, for 30 days with either vehicle (PEG:water), 30 mg/kg/day of Compound P3.1, or 100 mg/kg/day of HU. This mouse genotype mimics the genetic, hematologic and histopathologic features that are found in humans afflicted with sickle cell anemia, including irreversibly sickled RBCs, anemia and multi-organ pathology. Blood was collected from treated animals on Day 30 for limited routine hematology as well as derivation of the percent of sickled and HbF positive RBCs and total bilirubin. At termination, the spleen was removed and weighed.

[5] = test system: K562 erythroleukemic cells; assay: cGMP in cultured K562 cells; assay type: cell-based; conditions: 16 hours
Method: Hydroxyurea was included as a comparator as it is currently the only FDA approved treatment for this disease (Charache et al., N Engl J Med., 332(20):1317-22. (1995)). One of the proposed mechanisms of action of HU in SCD is that it may generate NO and modulation of intracellular levels of the NO second messenger, cGMP, may represent an effective and cell-specific approach for amplifying intracellular NO-dependent signaling.
K562 cells were cultured at 37° C. in IMDM® to which the required concentrations of test items or dimethyl sulfoxide (DMSO; negative Control) had been added. Plated cells were maintained at 37° C. for 16 hours at the end of which the amount of cGMP was detected by enzyme immunoassay.

[6] = test system: HbSS-Townes mice; assay: Microvascular stasis and hematology in HbSS-Townes mice; assay type: in vivo
Method: The ability of Compound P3.1 to reduce vaso-occulsion was assessed in HbSS-Townes transgenic sickle mice after transient hypoxia and re-oxygenation. This study assessed the effects of repeated (10 days) oral dosing of Compound P3.1 and HU on microvascular stasis and other hematological markers of sickle cell disease, after transient hypoxia and re-oxygenation, in Townes transgenic sickle mice, a mouse model of sickle cell disease (Hba^tm1(HBA)Tow Hbb^tm2(HBG1,HBB*)Tow/Hbb^tm3(HBG1,HBB)Tow/J). HbSS-Townes mice were divided into groups of 3 mice and were then dosed orally via drinking water with Compound P3.1 at 10 mg/kg/day, Compound P3.1 at 30 mg/kg/day, HU (100 mg/kg/day), or a combination of Compound P3.1 and HU (at doses of 30 and 100 mg/kg/day, respectively) for 10 days. A final group received water containing 0.08% methylcellulose, the vehicle used to prepare the test items, and served as controls. On Day 7 of treatment, the mice were implanted with dorsal skin-fold chambers (DSFC), and on Day 10 of treatment, 20-23 flowing subcutaneous venules in the DSFC window were selected and mapped. After venule selection and mapping, mice were placed in a chamber and exposed to a hypoxic atmosphere (7% O2/93% N2) for 1 hour, after which they were returned to room air. All of the selected venules were re-examined after 1 and 4 hours of re-oxygenation in room air and the number of static (no flow) venules was counted and expressed as percent stasis. On completion of these measurements, blood was collected for clinical pathology with a focus on hematological measures associated with sickle cell disease.

[7] = test system: TNF-α activated human endothelial cells; assay: Micro-channel PMN adhesion assay under flow (FIG. 9); assay type: cell-based
Excerpt: In this study, the effects of Compound P3.1 on PMN adhesion to TNF-α activated human endothelial cell monolayers under flow conditions are investigated. It has been validated in vitro dynamic assay mimics neutrophil recruitment to endothelial cell monolayers under inflammatory conditions (TNF-α activation). In this assay, both control and sickle PMNs adhere to endothelial cells but to different degrees, reflecting in vivo conditions. The human dermal microvascular endothelial cell line HMEC-1 is used in this approach. The potential inhibitory effect of Compound P3.1 is tested in parallel and compared with the effect of HU and other PDE9 inhibitors.
In a first step, the effects of 1 uM Compound P3.1 and 10 uM HU were tested by incubating blood samples from healthy volunteers (n=3-6) (i.e., donors or donor cells) with these molecules.
Adhesion of PMNs from healthy volunteers was assessed under flow conditions, mimicking blood flow, in micro channels (Venaflux, Cellix, Ireland) coated with endothelial cell monolayers cultivated under inflammatory conditions. The adhesion assay was performed with whole fresh blood, previously incubated or not with Compound P3.1, to be closer to the physiological condition of circulation in a person, and to study the interaction between the different blood cells with PMNs.

[8] = test system: K562 erythroleukemic cells; assay: HbF in cultured K562 cells; assay type: cell-based; conditions: 3 days
Method: K562 cells were cultured at 37° C. in IMDM® to which the required concentrations of test items or DMSO (negative control) had been added. Plated cells were maintained at 37° C. for 3 days at the end of which the presence of HbF within cells was detected by flow cytometry.

[9] = test system: TNF-α activated endothelium; assay: Micro-channel assay of platelet, PMN and RBC binding (FIG. 10); assay type: cell-based, human; conditions: Compound P3.1 2 or 3 hours, HU 3 hours; bound cells at 30 min
Method: In another assay, using the same method, the reduction of PMN and RBC bindings to TNF-α activated endothelium in a micro channel well was confirmed. Platelet, PMN, and RBC in blood samples from 5 healthy normal volunteers (donors) were labelled with fluorescent dyes. The blood samples were incubated with Compound P3.1 for 2 hours or 3 hours, or HU for 3 hours, prior to running them on micro channels that were previously coated with endothelial cells activated with TNF-α. The % of bound cells was quantified at 30 min. Results are shown in FIG. 10A, FIG. 10B, and FIG. 10C.

[10] = Compound P3.1 30 mg/kg/day, HU 100 mg/kg/day, or both, 10 days

## C[C@@H]1CN(Cc2ncccn2)C[C@H]1c1nc2c(cnn2C2CCOCC2)c(=O)[nH]1 (single isomer, unassigned) [AF27873]
[1]
  IC50: 2.5 µM
[2]; 10 mg/kg/day
  conditioned freezing vs vehicle controls: significantly (p<0.05) more conditioned freezing
[2]; 30 mg/kg/day
  conditioned freezing vs vehicle controls: not observed

## NC(=O)NO [Hydroxyurea, reference compound]
[3]; 30 μM HU, remaining 3 subjects
  amount of HbF within cells (mean MFI): 19,383
  mean MFI of HbF relative to controls: 258%
  percentage of HbF positive CD36+ cells (mean): 23.9%
[3]; human, 30 μM
  cell death: greater than 80%
  viability: < 80%
[4]
  RBC count, hemoglobin concentration or hematocrit: not associated with any apparent alterations
  neutrophil levels: reduced neutrophil levels
  spleen weight: statistically significant decreases
  total bilirubin: statistically significant decreases
  total leucocyte count: statistically significant decreases
[4]; vs controls
  percentage of HbF positive RBCs: increases in the percentage of HbF positive RBCs
  percentage of sickled RBCs: statistically significant decreases in the percentage of sickled RBCs
[5]
  effect on cGMP levels: dose-dependent and statistically significant increases in cGMP levels
[6]; 30 mg/kg/day Compound P3.1 or 100 mg/kg HU, drinking water, 10 days, 1 and 4 hours post hypoxia
  microvascular stasis: statistically significant reductions in stasis
[6]; Compound P3.1 30 mg/kg/day or HU 100 mg/kg/day, 10 days
  total WBC numbers: reduce total WBC numbers
[6]; Compound P3.1 30 mg/kg/day, HU 100 mg/kg/day, or both
  vessel occlusion induced by transient hypoxia and re-oxygenation: effectively reduced
[6]; [10]
  number of HbF positive red cells: increase the number of HbF positive red cells
  proportion of sickled RBCs: reduce the proportion of sickled RBCs
[7]; 1 uM Compound P3.1 or 10 uM HU, whole blood of healthy volunteers
  adhesion of high-binding donor cells: reduced the binding of 2 of 3 of the high binding donors
[7]; 10 uM HU
  toxicity to donor samples: 3 of 9 of the donor samples did not survive HU treatment
[8]; 100 μM
  HbF positive cells: 92.6%
[8]
  effect on HbF-positive cells by concentration: statistically significant increases in HbF-positive cells at concentrations of 10 μM and above (but not at 1 and 3 μM)
[9]
  platelet binding: did not impact platelet binding
